Key:
EGFR = target: T1, EGFR (Homo sapiens, UniProt P00533); assay: EGFR Kinase Assay; assay type: biochemical; conditions: for IC50: GST-EGFR, ATP 5 μM; for inhibition at 2 µM: test concentration of 2 μM, compounds without an IC50, read-out: EGFR inhibition in percent
T1 construct: The intracellular portion of EGFR started at nucleotide 2189 (corresponding to amino acid 667) and ended at the termination codon; made in house; host or cells: Sf9 insect cells (baculovirus)
How it was run: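 GST-fused human EGFR intracellular domain (from aa 667), Sf9-expressed, phosphorylated biotinylated polyGluTyr with 5 μM ATP plus γ-33P ATP in Tris pH 8.0, MgCl2, vanadate, 1 mM DTT, 1 h at 30 °C. Streptavidin Flashplate scintillation read; triplicate 16-point half-log series from 200 uM; IC50 from % inhibition vs log concentration, else % inhibition at 2 μM.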

HER-2 = target: T2, HER-2 (Homo sapiens, UniProt P04626); assay: HER-2 Kinase Assay; assay type: biochemical; conditions: value in parentheses
T2 construct: His6 with thrombin site (N); purchased Proqinase (Freiburg, Germany)
T2 sequence (P04626 679-1255): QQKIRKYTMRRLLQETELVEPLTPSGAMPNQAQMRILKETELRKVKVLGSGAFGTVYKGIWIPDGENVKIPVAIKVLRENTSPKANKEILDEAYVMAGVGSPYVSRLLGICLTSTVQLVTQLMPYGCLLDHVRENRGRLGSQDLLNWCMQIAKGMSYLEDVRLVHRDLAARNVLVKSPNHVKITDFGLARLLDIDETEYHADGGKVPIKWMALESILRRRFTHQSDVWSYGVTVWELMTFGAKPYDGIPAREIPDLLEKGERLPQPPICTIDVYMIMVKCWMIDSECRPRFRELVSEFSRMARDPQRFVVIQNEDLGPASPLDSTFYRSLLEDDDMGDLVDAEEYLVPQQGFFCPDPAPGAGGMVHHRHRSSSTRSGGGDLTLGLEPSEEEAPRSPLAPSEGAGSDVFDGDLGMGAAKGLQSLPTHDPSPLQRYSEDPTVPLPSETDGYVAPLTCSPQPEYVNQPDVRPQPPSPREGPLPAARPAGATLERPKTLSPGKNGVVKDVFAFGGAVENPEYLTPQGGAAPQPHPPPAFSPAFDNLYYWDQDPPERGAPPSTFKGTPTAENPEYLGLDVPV
Experimental: The HER-2 kinase used was purified at Proqinase (Freiburg, Germany) from a construct that consisted of a fusion of GST (Glutathione-S-Transferase), HIS6-Thrombin and the nucleotides encoding amino acids 679 to 1255 of HER-2 (Accession Number M11730).
A mixture of a 10× kinase reaction buffer (600 mM Hepes at pH 7.5, 30 mM Magnesium Chloride, 0.03 mM Sodium Vanadate and 500 μg/mL PEG 20,000), DTT (1.2 mM final from a 10 mM stock), APT (1 μM from a 10 mM stock), biotinylated polyGluTyr (1.5 ng/μL final from stock of 1 μg/μL) prepared by Upstate Biotechnologies, Lake Placid, N.Y.), Manganese Chloride (3 mM final from a 1 M stock), γ-^33P-ATP (10 μCl/μL stock) and water (70 μL/well) was added to each well of a Streptavidin Flashplate (Cat. # SMP103, NEN, Boston, Mass.).
Test compound stock (1 μL) was added to the appropriate wells. Diluted GSTHER2 kinase (6.7 ng/μL diluted into 50 mM Tris-HCl at pH 8.0 and 0.1% bovine serum albumin) (30 μL) was added (total volume of 200 ng/well) to initiate the reactions.
The reaction plates were incubated at 30° C. for 1 hr. The reaction was terminated by aspirating the reaction mixture from the plate wells and washing the wells three times with a 1×PBS stop buffer (300 μL) and 100 mM EDTA. After the final wash, the same stop buffer (200 μL) was again added to the wells. The plates were then sealed and read on the TopCount scintillation counter.
The Her-2 inhibition values were derived according to the procedure described in Example 164 and are shown as percent in Table 4 at a test concentration of 1 μM. For those compounds with an IC50, the IC50 value in μM is shown in parentheses. For compounds with multiple test values, each value represents a separate assay result.

T1 sequence (P00533 669-1210 limits assumed): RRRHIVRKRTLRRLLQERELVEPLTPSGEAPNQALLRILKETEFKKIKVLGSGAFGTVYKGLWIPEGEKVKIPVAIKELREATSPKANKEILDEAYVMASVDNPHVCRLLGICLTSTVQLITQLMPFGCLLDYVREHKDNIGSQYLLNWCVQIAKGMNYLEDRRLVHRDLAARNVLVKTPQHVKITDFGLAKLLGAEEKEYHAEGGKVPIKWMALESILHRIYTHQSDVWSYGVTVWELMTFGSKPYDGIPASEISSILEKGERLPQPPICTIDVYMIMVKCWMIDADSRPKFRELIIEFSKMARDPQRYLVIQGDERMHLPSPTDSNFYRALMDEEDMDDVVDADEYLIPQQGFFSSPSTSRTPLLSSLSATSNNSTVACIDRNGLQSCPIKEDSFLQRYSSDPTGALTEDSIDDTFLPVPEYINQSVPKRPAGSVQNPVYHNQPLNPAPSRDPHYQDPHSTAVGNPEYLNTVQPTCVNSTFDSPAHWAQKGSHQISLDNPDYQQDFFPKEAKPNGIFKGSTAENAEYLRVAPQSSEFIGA

Row | Compound | IC50 (EGFR) [nM] | IC50 (HER-2) [nM] | inhibition at 2 µM (EGFR) [%]
1 | CN1CCC(NC(=O)c2sc3ncnc4c3c2NC(=O)N4c2ccc3nc(Cc4cccc(F)c4)[nH]c3c2)CC1 [Cpd 194, 5-[2-(3-fluoro-benzyl)-3H-benzoimidazol-5-yl]-4-oxo-4,5-dihydro-3H-1-thia-3,5,6,8-tetraaza-acenaphthylene-2-carboxylic acid (1-methyl-piperidin-4-yl)-amide] |  | 5770 | 31
2 | O=C(Nc1ccc(CN2CCCCC2)cc1)c1sc2ncnc3c2c1NC(=O)N3c1cccc(Oc2ccccc2)c1 [Cpd 197, 4-oxo-5-(3-phenoxy-phenyl)-4,5-dihydro-3H-1-thia-3,5,6,8-tetraaza-acenaphthylene-2-carboxylic acid (4-piperidin-1-ylmethyl-phenyl)-amide] | 39 | 175 | 
3 | CN1CCN(Cc2ccc(NC(=O)c3sc4ncnc5c4c3NC(=O)N5c3cccc(Oc4ccccc4)c3)cc2)CC1 [Cpd 199, 4-oxo-5-(3-phenoxy-phenyl)-4,5-dihydro-3H-1-thia-3,5,6,8-tetraaza-acenaphthylene-2-carboxylic acid [4-(4-methyl-piperazin-1-ylmethyl)-phenyl]-amide] | 155 | 613 | 
4 | COc1ccc(C(=O)c2sc3ncnc4c3c2NC(=O)N4c2ccc(Oc3ccccc3)cc2)cc1OC [Cpd 202] |  | > 100000 | 31
5 | CCOC(=O)C=Cc1ccc(NC(=O)c2sc3ncnc4c3c2NC(=O)N4c2ccc3nc(Cc4cccc(F)c4)[nH]c3c2)cc1 [Cpd 206, 3-[4-({5-[2-(3-fluoro-benzyl)-3H-benzoimidazol-5-yl]-4-oxo-4,5-dihydro-3H-1-thia-3,5,6,8-tetraaza-acenaphthylene-2-carbonyl}-amino)-phenyl]-acrylic acid ethyl ester] |  | ~100000 | 12
6 | CCOC(=O)c1sc2ncnc3c2c1NC(=O)N3c1ccc(Sc2ccccc2)cc1 [Cpd 210, 4-oxo-5-(4-phenylsulfanyl-phenyl)-4,5-dihydro-3H-1-thia-3,5,6,8-tetraaza-acenaphthylene-2-carboxylic acid ethyl ester] | 615 | > 10000 | 
7 | CN1CCC(NC(=O)c2sc3ncnc4c3c2NC(=O)N4c2ccc(Oc3ccccc3)cc2)CC1 [Cpd 211, 4-oxo-5-(4-phenoxy-phenyl)-4,5-dihydro-3H-1-thia-3,5,6,8-tetraaza-acenaphthylene-2-carboxylic acid (1-methyl-piperidin-4-yl)-amide] | 63 | 518 | 
8 | CN(C)CCCNC(=O)c1sc2ncnc3c2c1NC(=O)N3c1ccc(Sc2ccccc2)cc1 [Cpd 212, 4-oxo-5-(4-phenylsulfanyl-phenyl)-4,5-dihydro-3H-1-thia-3,5,6,8-tetraaza-acenaphthylene-2-carboxylic acid (3-dimethylamino-propyl)-amide] | 36 | 168 | 
9 | O=C(c1sc2ncnc3c2c1NC(=O)N3c1ccc(Oc2ccccc2)cc1)N1CCN(CCN2CCOCC2)CC1 [Cpd 213, 2-[4-(2-morpholin-4-yl-ethyl)-piperazine-1-carbonyl]-5-(4-phenoxy-phenyl)-3H,5H-1-thia-3,5,6,8-tetraaza-acenaphthylen-4-one] |  | > 10000 | 48
10 | CN1CCCN(C(=O)c2sc3ncnc4c3c2NC(=O)N4c2ccc(Oc3ccccc3)cc2)CC1 [Cpd 214, 2-(4-methyl-[1,4]diazepane-1-carbonyl)-5-(4-phenoxy-phenyl)-3H,5H-1-thia-3,5,6,8-tetraaza-acenaphthylen-4-one] | 1300 | > 10000 | 

The remaining lines, values ahead:

Row | IC50 (EGFR) [nM] | IC50 (HER-2) [nM] | inhibition at 2 µM (EGFR) [%] | Compound
11 | 704 | > 1000 |  | O=C(Nc1ccc(CN2CCOCC2)cc1)c1sc2ncnc3c2c1NC(=O)N3c1ccc2nc(Cc3cccc(F)c3)[nH]c2c1 [Cpd 193, 5-[2-(3-fluoro-benzyl)-3H-benzoimidazol-5-yl]-4-oxo-4,5-dihydro-3H-1-thia-3,5,6,8-tetraaza-acenaphthylene-2-carboxylic acid (4-morpholin-4-ylmethyl-phenyl)-amide]
12 | 97 | 94 |  | O=C(Nc1ccc(CN2CCCCC2)cc1)c1sc2ncnc3c2c1NC(=O)N3c1ccc(Br)cc1 [Cpd 195, 5-(4-bromo-phenyl)-4-oxo-4,5-dihydro-3H-1-thia-3,5,6,8-tetraaza-acenaphthylene-2-carboxylic acid (4-piperidin-1-ylmethyl-phenyl)-amide]
13 | 206 | 122 |  | O=C(Nc1ccc(CN2CCOCC2)cc1)c1sc2ncnc3c2c1NC(=O)N3c1ccc(Br)cc1 [Cpd 196, 5-(4-bromo-phenyl)-4-oxo-4,5-dihydro-3H-1-thia-3,5,6,8-tetraaza-acenaphthylene-2-carboxylic acid (4-morpholin-4-ylmethyl-phenyl)-amide]
14 | 89 | 130 |  | COc1cc(NC(=O)c2sc3ncnc4c3c2NC(=O)N4c2cccc(Oc3ccccc3)c2)ccc1CN1CCOCC1 [Cpd 200, 4-oxo-5-(3-phenoxy-phenyl)-4,5-dihydro-3H-1-thia-3,5,6,8-tetraaza-acenaphthylene-2-carboxylic acid (3-methoxy-4-morpholin-4-ylmethyl-phenyl)-amide]
15 | 106 | 92 |  | COc1cc(NC(=O)c2sc3ncnc4c3c2NC(=O)N4c2ccc(Br)cc2)ccc1CN1CCOCC1 [Cpd 201, 5-(4-bromo-phenyl)-4-oxo-4,5-dihydro-3H-1-thia-3,5,6,8-tetraaza-acenaphthylene-2-carboxylic acid (3-methoxy-4-morpholin-4-ylmethyl-phenyl)-amide]
16 | 35 | 60 |  | O=C(Nc1ccc(CN2CCOCC2)c(F)c1)c1sc2ncnc3c2c1NC(=O)N3c1ccc(Oc2ccccc2)cc1 [Cpd 203, 4-oxo-5-(4-phenoxy-phenyl)-4,5-dihydro-3H-1-thia-3,5,6,8-tetraaza-acenaphthylene-2-carboxylic acid (3-fluoro-4-morpholin-4-ylmethyl-phenyl)-amide]
17 | 689 | 1440 |  | O=C(Nc1ccc(CN2CCCCC2)cc1)c1sc2ncnc3c2c1NC(=O)N3c1ccc([S+]([O-])c2ccccc2)cc1 (stereo not shown) [Cpd 205, 5-(4-benzenesulfinyl-phenyl)-4-oxo-4,5-dihydro-3H-1-thia-3,5,6,8-tetraaza-acenaphthylene-2-carboxylic acid (4-piperidin-1-ylmethyl-phenyl)-amide]
18 | 16 | 15 |  | CCOc1cc(NC(=O)c2sc3ncnc4c3c2NC(=O)N4c2ccc(Oc3ccccc3)cc2)ccc1CN1CCOCC1 [Cpd 207, 4-oxo-5-(4-phenoxy-phenyl)-4,5-dihydro-3H-1-thia-3,5,6,8-tetraaza-acenaphthylene-2-carboxylic acid (3-ethoxy-4-morpholin-4-ylmethyl-phenyl)-amide]
19 | 133 | 57 |  | O=C(Nc1ccc(CN2CCOCC2)cc1)c1sc2ncnc3c2c1NC(=O)N3c1ccc(Oc2cccnc2)c(Cl)c1 [Cpd 208, 5-[3-chloro-4-(pyridin-3-yloxy)-phenyl]-4-oxo-4,5-dihydro-3H-1-thia-3,5,6,8-tetraaza-acenaphthylene-2-carboxylic acid (4-morpholin-4-ylmethyl-phenyl)-amide]
20 | 101 | 72 |  | O=C(Nc1ccc(CN2CCCCC2)cc1)c1sc2ncnc3c2c1NC(=O)N3c1ccc(Oc2cccnc2)c(Cl)c1 [Cpd 209, 5-[3-chloro-4-(pyridin-3-yloxy)-phenyl]-4-oxo-4,5-dihydro-3H-1-thia-3,5,6,8-tetraaza-acenaphthylene-2-carboxylic acid (4-piperidin-1-ylmethyl-phenyl)-amide]
